Data on 19 molecules can be found in patent US7579353B2, “Pyridinone derivatives against malaria” (Glaxo Group Limited, priority 2005, dated 2009).

By IC50 is commonly meant the midpoint of a concentration-inhibition curve. Higher therefore signals weaker potency in that assay. What is called solubility is how much of the substance goes into solution per volume.

SMILES strings stand for the structures. In brackets after ≈: the same amount, converted by molar mass. Like-named read-outs stand apart in the source and are kept apart here.

One series concerns Plasmodium falciparum. Put plainly: In vitro anti-malarial activity against Plasmodium falciparum, IC50 assay / [3H]-hypoxanthine incorporation assay. It counts as cell-based. The settings on record: Erythrocyte, parasitized red blood cells, 48 hours. On the procedure: In Vitro Anti-malarial Activity Against Plasmodium falciparum
IC50 Assay/[^3H]-Hypoxanthine Assay
Plasmodium falciparum strains.
The culture medium comprised RPMI 1640 with 25 mM HEPES, sodium bicarbonate and glutamine (GIBCO™ cat. ref.: 52400), supplemented with 10% of pooled human sera AB (Irvine Scientific, cat. ref.: 5009) and HT supplement (0.15 mM hypoxanthine and 24 μM thymidine), (GIBCO™ cat. ref.: 41065). Human sera were decomplemented 30 min. at 56° C., aliquoted and stored frozen at −20° C. until use in this culture medium.
Red blood cells O+ stock suspensions were prepared from whole blood bags coming from incomplete blood donation, provided by the Spanish Red Cross (<25 days after sampling). This “whole blood” was aliquoted and stored at 4° C.
To prepare red blood cells for the assay, the whole blood was centrifuged and washed 3 times with RPMI without serum. The upper phase, containing white blood cells was removed. The washed red blood cells were kept as a 50% suspension in complete medium. The prepared cells were stored at 4° C. and were employed in the assay at any time up to 4 days after preparation.
Test compounds were dissolved at 2 mg/ml in 100% DMSO on the day of the assay. If necessary, complete dissolution was achieved by gentle heating (the mixture was heated at a temperature <37° C.) and sonication (sonication bath).
For IC50 determinations, 10 serial 2-fold dilutions were prepared in complete medium in the presence of a constant amount of DMSO.
Plasmodium falciparum strains were maintained in complete medium at an hematocrit of 5% in continuous culture using a method adapted from Trager and Jensen (1, 2).
The parasitemia was calculated by counting the percentage of parasitized erythrocytes by optical microscopy. Thin films of blood were made every day from each culture flask, fixed with methanol and stained for 10 min. in Giemsa (Merck, cat ref.: 1.09204) at 10% in buffered water pH 7.2. The glass slides were observed and counted with an optical microscope (Nikon, Eclipse E200) equipped with a 100× immersion oil objective.
The culture was maintained at an hematocrit of 5%, with a daily change of medium and was diluted when parasitemia had reached about 5%.
[^3H] Hypoxanthine incorporation assay was conducted using a method adapted from Desjardins et al. (3). The assays were performed in 96 wells flat bottom microplates.
1. Serial dilutions of the test compounds (50 μl of a 5× solution/well) were deposited in duplicate. Compounds of the invention were tested in this assay. Chloroquine and Atovaquone were used as control compounds for each assay.
3. [^3H]-Hypoxanthine (Amersham Biosciences, cat. ref.: TRK74) was added extemporaneously to the inoculum suspension at a concentration of 1 μCi/ml (equating to […]). 200 μl of the resulting suspension was distributed into each well (other than the control well H12 described below) leading to a final volume of 250 μl per well, at 2% of hematocrit and 0.5% of parasitemia/well.
4. In each plate, 2 columns were reserved for control wells: • Column 11: Positive control wells: PRBCs with 0.2% DMSO—(i) to determine DMSO solvent effect on parasite growth (at a final concentration of 0.2%) and (ii) to compare with cultures treated with test compounds. • Column 12 (comprising wells A12-H12): • A12-D12—Background value wells: Uninfected RBCs—blank control to obtain the background reading from RBCs without parasites. • E12-G12—Solvent effect wells: PRBCs without DMSO—to determine DMSO solvent effect on PRBCs by comparing these wells with column 11 wells. • H12-Non-radioactive well: PRBCs with cold hypoxanthine—(i) to carry out a thin blood film to determine parasitemia value after incubation by microscopy and (ii) to ensure that the parasites have grown properly during the assay. (200 μl of inoculum suspension was prepared as described above (Items 2 and 3) but with non-tritiated hypoxanthine instead of [3H]-hypoxanthine, then added to this well to a final volume of 250 μl). […]

A short description of series [1]: Compound solubility determination (gross and equilibrium solubility; FaSSIF, FeSSIF, pH 7.4 PBS, pH 1.0 0.1N HCl, pH 4.5 sodium citrate). It counts as physicochemical. Particulars: thermodynamic from solid. On the procedure: Compound Solubility Determination
An amount of 3 mg solid compound with LC-MS purity ≧95% was required. This amount was split between 3 different glass vials (1.8 ml volume each), placing 1 mg compound into each one.
Organic solvents of HPLC grade were used. Ultra pure water (Milli-Q grade) was used. Buffers were prepared with ultra pure water and filtered using 0.45μ cameo filters. The compositions of each solvent employed in this assay are described below (part III).
2. Determination of Equilibrium Solubility (Assuming Chemical Stability in the Desired Solvent is not a Problem).
For each of the three vial samples prepared as described above, in which the amount of compound was totally dissolved, the following procedure was subsequently carried out: • a) A small amount (approx. 0.1 mg) of additional solid compound was added to the vial to maintain an excess of the compound in the mixture in the form of undissolved solid. • b) The samples were magnetically stirred for 24 hr. If required, additional solid compound (0.1 mg) was added to maintain excess of it and then the samples were stirred again. • c) Then the samples were filtered (Millipore Milex filters nylon 0.2 um) and three aliquots were taken (one from each of the three vials) and analysed by LC-MS. • d) The pH of the final solution in each sample was measured with a pH-meter (WTW pH330i and a pH-electrode Sentix 41).
3. LC-MS Assay for Analytical Quantification
All filtered aliquots were analysed by LC-MS. The analysis was carried out with a Luna 5 μC18 (2) column 4.6×150 mm, using a HP1100 HPLC instrument interfaced with a Waters ZMD-2000 MS spectrometer. The concentration of the final sample as prepared above was calculated from that of a reference calibration curve obtained from serial dilutions of a 2 mM solution of the compound under investigation in DMSO (Aldrich cat. ref.: 27685-5) stock solution.
The analysis of all LC-MS data was performed with MassLynx 3.4 software. Statistical and graphic analysis of data was performed using Microsoft Excel. The concentration (uM) and solubility (ug/ml) for each compound was calculated using the peak areas from the sample and those from the calibration curve.
A) FaSSIF is a solvent which simulates the Fasted State of the Intestinal Fluid. (FaSSIF: Fasted State Simulated Intestinal Fluid).
B) FeSSIF is a solvent which simulates the Fed State of the Intestinal Fluid. (FeSSIF: Fed State Simulated Intestinal Fluid).
C) Solubility at pH 7.4 was determined in phosphate buffered saline (PBS) (Fluka cat. ref: 79383)
D) Solubility at pH 1.0 was determined in 0.1N HCl solution (Scharlau AL0744010C)
E) Solubility at pH 4.5 was determined in sodium citrate 0.5M solution. (Aldrich 25, 127-5)

Setting [2] is: 0.1N HCl solution, simulated gastric fluid, pH 1 (HCl), read-out: Solubility at pH 1 (HCl).
[3] abbreviates: FaSSIF (fasted state simulated intestinal fluid), fassif, read-out: Solubility in FaSSIF.
[4] abbreviates: FeSSIF (fed state simulated intestinal fluid), fessif, read-out: Solubility in FeSSIF.
[5] abbreviates: phosphate buffered saline (PBS), aqueous buffer, pH 7.4 (PBS), read-out: Solubility at pH 7.4 (PBS).
The mark [6] stands for this setting: sodium citrate 0.5M solution, aqueous buffer, pH 4.5 (Na citrate), read-out: Solubility at pH 4.5 (Na citrate).

In the series with Plasmodium falciparum, `Cc1[nH]c(C)c(-c2ccccn2)c(=O)c1Br` [Compound W, 5′-Bromo-2′,6′-dimethyl-2,3′-bipyridin-4′-(1′H)-one, reference compound] showed an IC50 of 0.5 µg/mL (≈ 1.79 µM). Same read-out and setting: the figure for `Cc1[nH]c(C)c(-c2ccc(Oc3ccc(OC(F)(F)F)cc3)cc2)c(=O)c1Cl` [Compound Y, 3-chloro-5-(4-(4-trifluoromethoxyphenoxy)phenyl)-2,6-dimethylpyridin-4(1H)-one, reference compound] is less than 0.125 µg/mL; for `Cc1[nH]c(C)c(-c2ccc(Oc3cccc(C(F)(F)F)c3)cc2)c(=O)c1Cl` [Compound Z, 3-Chloro-2,6-dimethyl-5-(4-{[3-(trifluoromethyl)phenyl]oxy}phenyl)-4(1H)pyridinone, reference compound] it is less than 0.125 µg/mL; for `Cc1[nH]c(C)c(-c2ccc(OCc3ccc(OC(F)(F)F)cc3)nc2)c(=O)c1Br` [Example 1, 5-Bromo-2,6-dimethyl-6′-{[4-(trifluoromethoxy)benzyl]oxy}-3,3′-bipyridin-4(1H)-one] it is less than 0.125 µg/mL. Same read-out and setting: the figure for `Cc1[nH]c(C)c(-c2ccc(OCc3cccc(C(F)(F)F)c3)nc2)c(=O)c1Br` [Example 2, 5-Bromo-2,6-dimethyl-6′-{[3-(trifluoromethyl)benzyl]oxy}-3,3′-bipyridin-4(1H)-one] is less than 0.125 µg/mL. Turning to `Cc1[nH]c(C)c(-c2ccc(OCc3ccc(C(F)(F)F)cc3)nc2)c(=O)c1Br` [Example 3, 5-Bromo-2,6-dimethyl-6′-{[4-(trifluoromethyl)benzyl]oxy}-3,3′-bipyridin-4(1H)-one], in the series on Plasmodium falciparum, the IC50 was less than 0.125 µg/mL. On the same count and under the same terms, then `Cc1[nH]c(C)c(-c2ccc(OCc3ccccc3C(F)(F)F)nc2)c(=O)c1Br` [Example 4, 5-Bromo-2,6-dimethyl-6′-{[2-(trifluoromethyl)benzyl]oxy}-3,3′-bipyridin-4(1H)-one], with less than 0.125 µg/mL. Same read-out and setting: then `Cc1[nH]c(C)c(-c2ccc(OCc3cc(C(F)(F)F)cc(C(F)(F)F)c3)nc2)c(=O)c1Br` [Example 5, 5-Bromo-2,6-dimethyl-6′-{[3,5-bis(trifluoromethyl)benzyl]oxy}-3,3′-bipyridin-4(1H)-one], with less than 0.125 µg/mL; and `Cc1[nH]c(C)c(-c2ccc(OCc3ccc(F)cc3)nc2)c(=O)c1Br` [Example 6, 5-Bromo-6′-{[4-fluorobenzyl]oxy}-2,6-dimethyl-3,3′-bipyridin-4(1H)-one], with less than 0.125 µg/mL; and `Cc1[nH]c(C)c(-c2ccc(OCc3cc(F)cc(F)c3)nc2)c(=O)c1Br` [Example 7, 5-Bromo-6′-{[3,5-difluorobenzyl]oxy}-2,6-dimethyl-3,3′-bipyridin-4(1H)-one], with less than 0.125 µg/mL.

In turn, `Cc1[nH]c(C)c(-c2ccc(OCc3ccc(OC(F)(F)F)cc3)nc2)c(=O)c1Cl` [Example 8, 5-Chloro-2,6-dimethyl-6′-{[4-(trifluoromethoxy)benzyl]oxy}-3,3′-bipyridin-4(1H)-one] yielded an IC50 in the series on Plasmodium falciparum of less than 0.125 µg/mL. The same measure, in the same setting: then `Cc1[nH]c(C)c(-c2ccc(OCc3cccc(C(F)(F)F)c3)nc2)c(=O)c1Cl` [Example 9, 5-Chloro-2,6-dimethyl-6′-{[3-(trifluoromethyl)benzyl]oxy}-3,3′-bipyridin-4(1H)-one], with less than 0.125 µg/mL; and `Cc1[nH]c(C)c(-c2ccc(OCc3ccccc3C(F)(F)F)nc2)c(=O)c1Cl` [Example 11, 5-Chloro-2,6-dimethyl-6′-{[2-(trifluoromethyl)benzyl]oxy}-3,3′-bipyridin-4(1H)-one], with less than 0.125 µg/mL. For `Cc1[nH]c(C)c(-c2ccc(OCc3cc(C(F)(F)F)cc(C(F)(F)F)c3)nc2)c(=O)c1Cl` [Example 12, 5-Chloro-2,6-dimethyl-6′-{[3,5-bis(trifluoromethyl)benzyl]oxy}-3,3′-bipyridin-4(1H)-one], in the series on Plasmodium falciparum, the IC50 was less than 0.125 µg/mL. Still for that read-out and setting: the figure for `Cc1[nH]c(C)c(-c2ccc(OCc3ccc(F)cc3)nc2)c(=O)c1Cl` [Example 13, 5-Chloro-6′-{[4-fluorobenzyl]oxy}-2,6-dimethyl-3,3′-bipyridin-4(1H)-one] is less than 0.125 µg/mL; for `Cc1[nH]c(C)c(-c2ccc(OCc3cc(F)cc(F)c3)nc2)c(=O)c1Cl` [Example 14, 5-Chloro-6′-{[3,5-difluorobenzyl]oxy}-2,6-dimethyl-3,3′-bipyridin-4(1H)-one] it is less than 0.125 µg/mL. Turning to `Cc1nc(C)c(-c2ccc(-c3ccc(Cl)cc3)cc2)c(O)c1Br` [comparator X], the solubility at 24 h was less than 1 µg/mL in series [1] (setting [2]); 5 to 10 µg/mL (≈ 12.9 to 25.7 µM) in series [1] (setting [3]); 5 to 10 µg/mL (≈ 12.9 to 25.7 µM) in series [1] (setting [4]); less than 1 µg/mL in series [1] (setting [5]); less than 1 µg/mL in series [1] (setting [6]).

In the case of `Cc1[nH]c(C)c(-c2ccc(Oc3ccc(OC(F)(F)F)cc3)cc2)c(=O)c1Cl` [comparator Y], the solubility at 24 h in series [1] (setting [2]) was less than 1 µg/mL; in series [1] (setting [3]), less than 1 µg/mL; in series [1] (setting [4]) it was 1 to 5 µg/mL (≈ 2.44 to 12.2 µM); in series [1] (setting [5]) it was less than 1 µg/mL; in series [1] (setting [6]), less than 1 µg/mL. As for `Cc1[nH]c(C)c(-c2ccc(Oc3cccc(C(F)(F)F)c3)cc2)c(=O)c1Cl` [comparator Z], the solubility at 24 h was less than 1 µg/mL in series [1] (aqueous buffer, pH 4.5 (Na citrate), read-out: Solubility at pH 4.5 (Na citrate)); less than 1 µg/mL in series [1] (aqueous buffer, pH 7.4 (PBS), read-out: Solubility at pH 7.4 (PBS)); less than 1 µg/mL in series [1] (fassif, read-out: Solubility in FaSSIF); 1 to 5 µg/mL (≈ 2.54 to 12.7 µM) in series [1] (fessif, read-out: Solubility in FeSSIF); less than 1 µg/mL in series [1] (simulated gastric fluid, pH 1 (HCl), read-out: Solubility at pH 1 (HCl)).
